Measured values published in ChEMBL document CHEMBL1201862, “PubChem BioAssay data set” (2004).
Blank lines part the entries; values can stand above or below the molecule they belong to. Activity calls are given as the source filed them.

Assays:
[1] = biological target: T1, Cytochrome P450 3A4 (Homo sapiens, UniProt P08684); details: Potency
[2] = test system: INS1; experiment: INS-1E survival protection against cytokine death – cell-based, luminescence, retest, dose response (AID 449756); format: functional; details: Rattus norvegicus;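 further: cell death triggered by IL-1 beta plus TNF-alpha plus IFN-gamma mixture; protective hits raise ATP signal compared with cytokine alone wells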
[3] = biological target: Voltage-dependent T-type calcium channel subunit alpha-1H (Homo sapiens, UniProt O95180); format: functional;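 further: channel activity triggered by adding a high calcium stimulation buffer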
Voltage-dependent T-type calcium channel subunit alpha-1H, sequence (O95180 whole entry): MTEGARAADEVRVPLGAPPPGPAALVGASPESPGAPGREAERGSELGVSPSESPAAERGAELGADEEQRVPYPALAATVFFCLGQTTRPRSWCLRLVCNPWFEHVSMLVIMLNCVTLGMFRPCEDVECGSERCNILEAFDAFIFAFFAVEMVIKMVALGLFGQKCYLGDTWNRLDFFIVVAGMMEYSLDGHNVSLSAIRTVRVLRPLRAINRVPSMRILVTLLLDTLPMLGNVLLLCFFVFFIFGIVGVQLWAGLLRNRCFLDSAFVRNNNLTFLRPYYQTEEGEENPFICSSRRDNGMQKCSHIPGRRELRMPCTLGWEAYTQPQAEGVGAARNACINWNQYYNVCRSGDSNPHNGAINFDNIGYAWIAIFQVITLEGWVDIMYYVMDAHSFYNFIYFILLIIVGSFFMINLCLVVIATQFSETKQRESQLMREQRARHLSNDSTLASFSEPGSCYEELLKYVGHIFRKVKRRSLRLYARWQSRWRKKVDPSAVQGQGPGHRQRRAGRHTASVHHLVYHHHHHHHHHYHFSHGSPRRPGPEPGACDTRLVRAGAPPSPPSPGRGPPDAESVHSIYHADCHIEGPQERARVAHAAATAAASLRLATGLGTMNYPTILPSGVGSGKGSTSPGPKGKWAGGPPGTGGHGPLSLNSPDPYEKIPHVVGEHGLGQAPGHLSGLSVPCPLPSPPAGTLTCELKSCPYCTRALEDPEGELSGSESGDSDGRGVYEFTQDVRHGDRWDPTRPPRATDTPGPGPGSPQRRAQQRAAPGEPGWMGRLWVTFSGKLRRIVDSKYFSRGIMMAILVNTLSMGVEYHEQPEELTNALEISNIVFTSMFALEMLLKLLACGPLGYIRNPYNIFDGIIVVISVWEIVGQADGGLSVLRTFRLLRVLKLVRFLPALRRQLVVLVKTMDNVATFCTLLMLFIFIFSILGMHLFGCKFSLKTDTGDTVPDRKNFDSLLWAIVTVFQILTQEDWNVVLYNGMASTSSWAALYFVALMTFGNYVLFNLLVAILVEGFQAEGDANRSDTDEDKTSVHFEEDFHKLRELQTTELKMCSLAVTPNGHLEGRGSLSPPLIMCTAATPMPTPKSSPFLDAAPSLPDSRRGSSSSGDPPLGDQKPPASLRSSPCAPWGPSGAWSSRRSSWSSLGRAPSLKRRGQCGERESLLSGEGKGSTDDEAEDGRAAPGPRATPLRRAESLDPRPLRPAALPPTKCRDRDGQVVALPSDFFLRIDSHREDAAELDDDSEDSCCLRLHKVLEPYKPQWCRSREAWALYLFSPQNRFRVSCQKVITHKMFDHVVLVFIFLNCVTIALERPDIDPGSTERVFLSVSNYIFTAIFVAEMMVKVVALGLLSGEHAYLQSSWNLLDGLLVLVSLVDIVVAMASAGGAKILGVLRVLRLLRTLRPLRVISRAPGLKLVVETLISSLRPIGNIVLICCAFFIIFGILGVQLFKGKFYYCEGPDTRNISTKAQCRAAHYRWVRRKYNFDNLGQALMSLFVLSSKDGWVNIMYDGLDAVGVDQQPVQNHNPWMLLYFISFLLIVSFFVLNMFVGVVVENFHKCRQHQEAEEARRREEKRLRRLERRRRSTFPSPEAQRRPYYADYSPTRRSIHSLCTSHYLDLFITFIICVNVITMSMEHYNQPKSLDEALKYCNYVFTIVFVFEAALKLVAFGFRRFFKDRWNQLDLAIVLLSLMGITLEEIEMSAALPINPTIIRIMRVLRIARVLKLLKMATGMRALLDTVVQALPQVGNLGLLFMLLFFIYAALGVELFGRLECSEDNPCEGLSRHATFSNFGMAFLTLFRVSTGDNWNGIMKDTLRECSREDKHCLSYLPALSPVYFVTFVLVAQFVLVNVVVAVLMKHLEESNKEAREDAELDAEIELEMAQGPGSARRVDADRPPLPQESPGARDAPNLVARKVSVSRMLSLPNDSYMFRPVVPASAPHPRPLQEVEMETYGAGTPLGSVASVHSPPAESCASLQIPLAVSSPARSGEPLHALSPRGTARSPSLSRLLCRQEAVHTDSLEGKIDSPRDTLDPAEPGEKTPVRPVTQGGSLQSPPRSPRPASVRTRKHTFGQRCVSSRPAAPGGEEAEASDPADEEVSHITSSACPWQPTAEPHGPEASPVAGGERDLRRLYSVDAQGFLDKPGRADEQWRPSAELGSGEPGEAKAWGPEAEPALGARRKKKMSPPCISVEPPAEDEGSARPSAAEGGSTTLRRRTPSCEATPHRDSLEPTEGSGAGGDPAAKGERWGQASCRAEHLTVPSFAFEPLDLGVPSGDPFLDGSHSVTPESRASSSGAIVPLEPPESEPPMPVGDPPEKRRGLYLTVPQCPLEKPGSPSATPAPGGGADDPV

[4] = biological target: T1, Cytochrome P450 3A4
[5] = HEK-293T cell viability reduction – luminescence, B-cell screen hits, cytotoxicity control for BCR NF-kB inhibitor project, dose response (AID 489021); format: functional, cell-based;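 further: HEK-293T cells carrying an NF-kB luciferase reporter; cells exposed to compound for about 14 hours before viability readout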
[6] = biological target: T2, Leucine aminopeptidase (Plasmodium falciparum 3D7, UniProt Q8IL11); experiment: P. falciparum M17LAP inhibitors, primary screen, biochemical, fluorogenic H-Leu-NHMec substrate, 1536-well (AID 1619); format: functional
T2 sequence (Q8IL11 whole entry): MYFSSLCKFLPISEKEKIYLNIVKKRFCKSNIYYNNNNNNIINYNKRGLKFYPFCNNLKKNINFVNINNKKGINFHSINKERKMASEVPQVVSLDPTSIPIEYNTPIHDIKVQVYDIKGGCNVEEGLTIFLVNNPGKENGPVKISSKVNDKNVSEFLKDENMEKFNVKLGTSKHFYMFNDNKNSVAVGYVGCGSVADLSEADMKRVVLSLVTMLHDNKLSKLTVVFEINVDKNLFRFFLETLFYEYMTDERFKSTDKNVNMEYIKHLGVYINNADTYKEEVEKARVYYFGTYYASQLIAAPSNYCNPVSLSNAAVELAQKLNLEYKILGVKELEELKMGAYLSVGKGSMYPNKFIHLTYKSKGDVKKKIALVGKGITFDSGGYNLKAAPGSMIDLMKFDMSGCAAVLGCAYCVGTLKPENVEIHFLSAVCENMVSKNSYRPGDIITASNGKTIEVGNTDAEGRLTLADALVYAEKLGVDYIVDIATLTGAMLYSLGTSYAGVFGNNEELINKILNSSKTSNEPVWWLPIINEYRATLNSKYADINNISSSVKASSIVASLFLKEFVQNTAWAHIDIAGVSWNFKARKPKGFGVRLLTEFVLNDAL

[7] = biological target: T3, Aminopeptidase N (Plasmodium falciparum FcB1/Columbia, UniProt O96935); experiment: malaria alanyl aminopeptidase activity blockers – biochemical, fluorogenic H-Leu-NHMec substrate, 1536-well (AID 1445); set-up: species or system Plasmodium falciparum 3D7, 3D7
T3 sequence (O96935 whole entry): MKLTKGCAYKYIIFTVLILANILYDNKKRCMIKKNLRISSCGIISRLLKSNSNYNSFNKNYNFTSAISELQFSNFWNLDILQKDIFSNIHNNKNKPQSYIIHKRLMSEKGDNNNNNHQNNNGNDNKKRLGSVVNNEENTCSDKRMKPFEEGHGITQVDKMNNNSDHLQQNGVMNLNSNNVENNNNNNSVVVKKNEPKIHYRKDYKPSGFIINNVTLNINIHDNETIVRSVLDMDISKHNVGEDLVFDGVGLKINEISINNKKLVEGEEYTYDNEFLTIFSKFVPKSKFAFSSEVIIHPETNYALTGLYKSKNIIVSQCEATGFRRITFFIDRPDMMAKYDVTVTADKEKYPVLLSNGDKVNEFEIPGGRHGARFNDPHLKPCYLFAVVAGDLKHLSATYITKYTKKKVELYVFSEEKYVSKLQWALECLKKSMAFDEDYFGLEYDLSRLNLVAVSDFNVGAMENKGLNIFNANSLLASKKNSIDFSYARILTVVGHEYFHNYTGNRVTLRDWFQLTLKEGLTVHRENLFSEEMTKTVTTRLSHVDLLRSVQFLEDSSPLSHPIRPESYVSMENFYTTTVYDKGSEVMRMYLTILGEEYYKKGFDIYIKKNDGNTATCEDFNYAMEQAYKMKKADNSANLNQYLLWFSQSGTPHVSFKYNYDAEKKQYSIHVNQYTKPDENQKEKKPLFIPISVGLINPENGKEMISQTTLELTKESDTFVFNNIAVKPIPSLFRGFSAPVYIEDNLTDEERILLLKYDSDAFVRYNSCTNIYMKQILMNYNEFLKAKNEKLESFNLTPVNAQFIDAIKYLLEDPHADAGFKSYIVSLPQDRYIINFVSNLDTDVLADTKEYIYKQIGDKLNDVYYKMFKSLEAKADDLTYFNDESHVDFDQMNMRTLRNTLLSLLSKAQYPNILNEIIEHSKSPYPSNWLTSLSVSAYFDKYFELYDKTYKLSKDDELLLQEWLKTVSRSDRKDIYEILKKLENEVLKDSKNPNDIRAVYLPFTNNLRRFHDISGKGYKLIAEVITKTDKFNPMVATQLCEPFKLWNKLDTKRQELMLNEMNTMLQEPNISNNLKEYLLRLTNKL

[8] = cells; format: functional, cell-based
[9] = cells; format: functional, cell-based; remark: listed apart in the source
[10] = NIH-3T3 fibroblast cytotoxicity, dose response, cytotoxicity control, cell-based, fluorescence, Alamar Blue, secondary assay (AID 2327); format: functional;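 further: NIH-3T3 mouse fibroblasts cultured with fluconazole at 8 µg/mL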
[11] = fluconazole-exposed Candida albicans growth modulators – fluorescence, retest, confirmation (AID 2467); format: functional, cell-based
[12] = biological target: T4, Calpain-2 catalytic subunit (Sus scrofa, UniProt P43367); experiment: m-calpain protease blockers, concentration series – biochemical, fluorogenic peptide substrate, dose response (AID 1420); format: functional
T4 sequence (P43367 whole entry): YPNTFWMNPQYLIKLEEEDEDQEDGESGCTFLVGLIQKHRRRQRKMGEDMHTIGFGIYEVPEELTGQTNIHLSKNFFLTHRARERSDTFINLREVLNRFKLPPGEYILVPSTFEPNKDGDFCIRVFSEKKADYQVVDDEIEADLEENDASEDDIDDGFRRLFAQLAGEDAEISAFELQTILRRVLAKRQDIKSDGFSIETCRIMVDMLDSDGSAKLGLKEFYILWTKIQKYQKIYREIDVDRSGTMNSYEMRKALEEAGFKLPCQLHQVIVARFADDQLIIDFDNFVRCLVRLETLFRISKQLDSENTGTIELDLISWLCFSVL

T1 sequence (P08684 whole entry): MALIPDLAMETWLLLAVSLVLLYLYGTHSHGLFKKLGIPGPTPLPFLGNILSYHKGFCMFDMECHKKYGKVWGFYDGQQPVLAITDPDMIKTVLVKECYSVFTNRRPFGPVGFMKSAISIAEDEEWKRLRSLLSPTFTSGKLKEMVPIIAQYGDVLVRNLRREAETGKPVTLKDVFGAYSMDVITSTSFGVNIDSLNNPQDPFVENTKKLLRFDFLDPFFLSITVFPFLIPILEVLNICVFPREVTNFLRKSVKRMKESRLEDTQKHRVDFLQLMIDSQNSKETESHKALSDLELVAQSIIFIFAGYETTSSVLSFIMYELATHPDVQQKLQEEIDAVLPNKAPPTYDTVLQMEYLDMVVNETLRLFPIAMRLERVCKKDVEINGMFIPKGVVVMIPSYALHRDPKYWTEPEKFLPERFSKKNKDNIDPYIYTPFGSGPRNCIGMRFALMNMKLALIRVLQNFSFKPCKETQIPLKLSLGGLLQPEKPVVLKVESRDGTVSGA

SMILES: Cc1ccc(NC(=O)c2c(-c3c(F)cccc3Cl)noc2C)cc1F
AC50 [2]: > 260 µM (inactive)
EC50 [3]: 5.69 µM (active)

SMILES: CC(=O)c1cccc(S(=O)(=O)Nc2cc(C(F)(F)F)ccc2N2CCOCC2)c1
IC50 [5]: > 80 µM (inactive)

SMILES: CCCn1c(C)nc2c(N(CCN(C)C)Cc3ccccc3)nc(C)nc21
AC50 [1]: 12.6 µM (inconclusive)

SMILES: Cn1cccc1Cc1nnc(SCC(=O)Nc2ccccc2)n1-c1ccc(F)cc1
EC50 [3]: 2.44 µM (active)

SMILES: Nc1nonc1C(=O)N/N=C/c1cc(Br)ccc1O
EC50 [8]: 108 µM (active)
EC50 [9]: > 350 µM (not active)
EC50 [10]: > 160 µM (inactive)
EC50 [11]: 0.782 µM (active)
IC50 [7]: 3.45 µM (active)

SMILES: CCOP(=O)(OCC)c1nc(-c2cccc([N+](=O)[O-])c2)oc1N1CCCCC1
IC50 [7]: 50.1 µM (active)

SMILES: CCN1C(=O)c2cccc3c(S(=O)(=O)Nc4ccccc4)ccc1c23
IC50 [5]: > 80 µM (inactive)

SMILES: CCCC(=O)Nc1ccc(Sc2ccc([N+](=O)[O-])cc2)cc1
IC50 [5]: 77.8 µM (inactive)
IC50 [12]: 10.7 µM (not active)

SMILES: CCC(=O)N1c2ccccc2C(N(C(C)=O)c2ccccc2)CC1C (stereo not drawn)
EC50 [8]: > 350 µM (not active)
EC50 [9]: > 350 µM (not active)
IC50 [5]: > 80 µM (inactive)

SMILES: CC(C)C(c1nnnn1Cc1ccccc1)N(Cc1ccco1)Cc1cccs1 (stereo not drawn)
IC50 [5]: > 80 µM (inactive)

Further lines, results first:

AC50 [1]: 10 µM (inconclusive)
SMILES: CCC1=C(OC(=O)N(CC)CC)N2C(=O)O/C(=N\CCOC)[C@]2(C)[C@H]2C1=CC[C@H]1C(=O)NC(=O)[C@H]12

AC50 [1]: 15.8 µM (inconclusive)
SMILES: C=CC(C1=CC(=O)C(OC)=C(OC)C1=O)c1ccccc1 (stereo not drawn)

AC50 [1]: 10 µM (inconclusive)
SMILES: C=CCNC(=O)c1cc([N+](=O)[O-])cc2c(=O)[nH]c(Nc3ccc(Cl)c(Cl)c3)nc12

AC50 [4]: 15.8 µM (inconclusive)
AC50 [1]: 10 µM (inconclusive)
SMILES: Clc1ccc2c(c1)C(N1CCNCC1)=Nc1ccccc1O2 [AMOXAPINE]

EC50 [3]: 10.2 µM (active)
SMILES: Cc1ccc(N(C(=O)Cc2c[nH]c3ccccc23)C(C(=O)NC2CCCCC2)c2ccco2)cc1 (stereo not drawn)

IC50 [6]: 105 µM (active)
IC50 [7]: 33.9 µM (active)
SMILES: O=C(O)C/C(=C\c1ccc(Cl)cc1)c1nc2ccccc2o1

IC50 [6]: 21.3 µM (active)
IC50 [7]: 36.3 µM (active)
SMILES: CCOC(=O)C1=C(Nc2ccc(OC)cc2)S/C(=C\c2ccc(OCC(=O)O)c(OCC)c2)C1=O

IC50 [7]: 63.9 µM (active)
SMILES: CC(C)C[C@H](NC(=O)c1[nH]cnc1C(=O)NC1CCN(C(=O)OC(C)(C)C)CC1)C(=O)OC(C)(C)C

EC50 [3]: 550 µM (active)
SMILES: O=c1oc2ccccc2n1CSc1nc2ccccc2s1

IC50 [7]: 37.5 µM (active)
SMILES: Cc1c(O)c(CN2CCCCC2)cc2c3c(c(=O)oc12)CCC3

AC50 [1]: 3.98 µM (inconclusive)
SMILES: C/C=C/C1Oc2ccc(OC)cc2N2C(=O)C(C)C(OCOC)C12 (stereo not drawn)

EC50 [3]: 6.34 µM (active)
SMILES: Cc1[nH]c2ccccc2c1SCC(=O)N1CCCc2ccccc21
